In publication PMC6273373, “Elucidation of Transport Mechanism of Paeoniflorin and the Influence of Ligustilide, Senkyunolide I and Senkyunolide A on Paeoniflorin Transport through Mdck-Mdr1 Cells as Blood–Brain Barrier in Vitro Model” (Molecules, 2016):
Blank lines part the entries; values can stand above or below the compound they belong to.

Experiments:
[1] = test system: MDCK-MDR1 cell monolayers; experiment: Transport of PF across MDCK-MDR1 cell monolayers (BBB in vitro model), LC-MS/MS; assay type: in vitro ADME, canine
Description: (§1) Cell monolayers were pre-incubated in Hank's buffered salt solution (HBSS, pH 7.4) for 30 min at 37 °C. Transepithelial electrical resistance (TEER) values were measured across the monolayers using a Millipore Millicell ERS system equipped with chopstick electrodes (Millipore Corporation, Billerica, MA, USA). […] To measure apical (A)→basolateral (B) transporter, 0.5 mL of drug solution was added in A side and 1.5 mL of HBSS in B side. Basolateral (B)→apical (A) transporter was evaluated adding 1.5 mL of drug solution in B side and 0.5 mL of HBSS in A side. […] Each measurement was evaluated in triplicate. Cells were incubated in a 37 °C shaking incubator. […] The supernatants were transferred to autosampler vials and injected into the LC-MS system. An HPLC system consisting of a solvent-delivery system […], an autosampler SIL-30 AC, a column oven CTO-30 AC, a solvent degasser DGU-20A3 and a controller CBM-20A from […] was used in the study. Separation was conducted using a Phenomenex Kinetex NB-C18 (100 × 3.0 mm, 2.6 μm, Torrance, CA, USA). The column oven was maintained at 30 °C. The mobile phase was water as mobile phase A and acetonitrile as mobile phase B. […] The injection volume was set at 5 μL. The MS analysis was performed on a 4500 QTRAPTM system from Applied Biosystems (AB Sciex) equipped with Turbo V sources and Turbo IonsprayTM interface. Electrospray ionization was performed in negative mode. The mass spectrometric parameters were optimized as: Turbo Ion Spray (TIS) temperature, 650 °C; ion spray voltage, -4500 V; curtain gas, nitrogen, 30; nebulizing gas, 50; TIS gas, 50; declustering potential, -130 eV for PF, 0 eV for internal standard (IS, gastrodin); collision energy, -30 eV for PF, -35 eV for IS. […] Analyst SoftwareTM (version 1.6.1) was used to process the obtained data. […] The efflux ratio (ER) was calculated according to the following Equation (4): (4) […]→BL

MDCK-MDR1 monolayers = experiment: Transepithelial electrical resistance (TEER) before and after permeation; assay type: cell-based, canine; settings: after versus before permeation
Description: Cell monolayers were pre-incubated in Hank’s buffered salt solution (HBSS, pH 7.4) for 30 min at 37 °C. Transepithelial electrical resistance (TEER) values were measured across the monolayers using a Millipore Millicell ERS system equipped with chopstick electrodes (Millipore Corporation, Billerica, MA, USA). Approximate MDCK-MDR1 values ranged from 500 to 800 Ω·cm^2. To measure apical (A)→basolateral (B) transporter, 0.5 mL of drug solution was added in A side and 1.5 mL of HBSS in B side. Basolateral (B)→apical (A) transporter was evaluated adding 1.5 mL of drug solution in B side and 0.5 mL of HBSS in A side. […] Transepithelial electrical resistance (TEER) of the monolayers was measured with the EVOM instrument (Millipore Corporation). The TEER of untreated cells and cells treated with LIG, SENI and SENA was determined in HBSS before and after the experiment. The measured TEER before the experiment was set as 100% and all other values were calculated according to this.

P-gp [2] = experiment: Western blot of P-gp expression in MDCK-MDR1 cells; assay type: cell-based, canine; settings: 8 hours
Description: Cells treated with different concentrations of LIG, SENA and SENI for 8 hours were subject to Western blot assay. Proteins were extracted from whole cell lysates and separated by sodium dodecyl sulfate–polyacrylamide gel electrophoresis, then transferred to a polyvinylidene fluoride (PVDF) membrane. The following primary antibodies were used: rabbit anti-P-gp (1:1000; Abcam, Cambridge, MA, USA) and mouse anti-β-actin (1:2000; Abcam). Membranes were then incubated with the horseradish peroxidase-conjugated secondary anti-bodies (1:5000; Abcam). The transferred proteins were incubated with enhanced chemiluminescence (ECL) substrate solution and visualized with the Image J program (Bio-Rad, Richmond, CA, USA). The relative levels were quantified densitometrically by using the Quantity One software (Bio-Rad Laboratories) and calculated according to the reference bands of β-actin.

[3] = Transport of PF across MDCK-MDR1 cell monolayers (BBB in vitro model), LC-MS/MS; assay type: in vitro ADME, canine; settings: dog
Description: as §1

P-gp (MDR1) = experiment: as above; assay type: in vitro ADME, canine; settings: dog, MDCK-MDR1, pH 7.4
Description: as §1

P-gp [4] = experiment: as above; assay type: in vitro ADME, canine; settings: dog, MDCK-MDR1, pH 7.4, 400 μg/mL PF + verapamil (P-gp inhibitor), mean ± SD (n = 3)
Description: as §1

[5] = enhancer 40 µg/mL with 400 µg/mL PF, versus PF alone
[6] = enhancer 80 µg/mL with 400 µg/mL PF, versus PF alone
[7] = enhancer 20 µg/mL with 400 µg/mL PF, versus PF alone

Effect on A→B transport (Papp/flux) of PF [1, 5]: significantly increased | Effect on A→B transport (Papp/flux) of PF [1, 6]: significantly increased
Structure (SMILES): CCC/C=C1\OC(=O)C2=C1CCC=C2 [LIG, ligustilide]
TEER change during permeation studies (MDCK-MDR1 monolayers; 20 μg/mL with 400 μg/mL PF): significantly decreased | TEER change during permeation studies (MDCK-MDR1 monolayers; 40 μg/mL with 400 μg/mL PF): markedly decreased | TEER change during permeation studies (MDCK-MDR1 monolayers; 80 μg/mL with 400 μg/mL PF): markedly decreased | P-gp expression versus control group (P-gp [2]; 20 μg/mL): significantly down-regulated | P-gp expression versus control group (P-gp [2]; 40 μg/mL): markedly down-regulated | P-gp expression versus control group (P-gp [2]; 80 μg/mL): markedly down-regulated

Papp A→B at 150 min, 400 μg/mL ([3]; MDCK-MDR1, pH 7.4, 400 μg/mL PF + 2.5 mmol/L EDTA-Na2, mean ± SD (n = 3)): 2.74 ± 0.212 ×10⁻⁶ cm/s | Papp A→B at 150 min, 100 μg/mL ([3]; MDCK-MDR1, pH 7.4, PF 100 μg/mL, MDCK-MDR1 monolayers, mean ± SD (n = 3)): 0.697 ± 0.053 ×10⁻⁶ cm/s | Papp A→B at 150 min, 200 μg/mL ([3]; MDCK-MDR1, pH 7.4, PF 200 μg/mL, MDCK-MDR1 monolayers, mean ± SD (n = 3)): 0.691 ± 0.082 ×10⁻⁶ cm/s | Papp A→B at 150 min, 400 μg/mL ([3]; MDCK-MDR1, pH 7.4, PF 400 μg/mL, MDCK-MDR1 monolayers, mean ± SD (n = 3)): 0.587 ± 0.088 ×10⁻⁶ cm/s | Papp A→B at 150 min, 600 μg/mL ([3]; MDCK-MDR1, pH 7.4, PF 600 μg/mL, MDCK-MDR1 monolayers, mean ± SD (n = 3)): 0.666 ± 0.072 ×10⁻⁶ cm/s | Papp A→B at 150 min, 800 μg/mL ([3]; MDCK-MDR1, pH 7.4, PF 800 μg/mL, MDCK-MDR1 monolayers, mean ± SD (n = 3)): 0.705 ± 0.107 ×10⁻⁶ cm/s | Papp A→B at 150 min ([3]; MDCK-MDR1, pH 7.4, PF 100-800 μg/mL, MDCK-MDR1 cells, read-out: Papp (A→B), range over tested concentrations): 0.587 to 0.705 ×10⁻⁶ cm/s | Papp B→A at 150 min, 100 μg/mL ([3]; pH 7.4, PF 100 μg/mL, MDCK-MDR1 monolayers, mean ± SD (n = 3)): 1.55 ± 0.092 ×10⁻⁶ cm/s | Papp B→A at 150 min, 200 μg/mL ([3]; pH 7.4, PF 200 μg/mL, MDCK-MDR1 monolayers, mean ± SD (n = 3)): 1.48 ± 0.363 ×10⁻⁶ cm/s | Papp B→A at 150 min, 400 μg/mL ([3]; pH 7.4, PF 400 μg/mL, MDCK-MDR1 monolayers, mean ± SD (n = 3)): 1.3 ± 0.084 ×10⁻⁶ cm/s | Papp B→A at 150 min, 600 μg/mL ([3]; pH 7.4, PF 600 μg/mL, MDCK-MDR1 monolayers, mean ± SD (n = 3)): 1.44 ± 0.201 ×10⁻⁶ cm/s | Papp B→A at 150 min, 800 μg/mL ([3]; pH 7.4, PF 800 μg/mL, MDCK-MDR1 monolayers, mean ± SD (n = 3)): 1.42 ± 0.097 ×10⁻⁶ cm/s | Increase of Papp (A→B) of PF in comparison with the non-EDTA-Na2 added ([1]; 400 μg/mL PF with 2.5 mmol/L EDTA-Na2): about five | Increase of Papp (A→B) of PF in comparison with the non-verapamil added ([1]; 400 μg/mL PF with verapamil): about 1.2 fold | ER (B→A/A→B) ([1]; PF 600 μg/mL, MDCK-MDR1 monolayers): 2.156 | B→A/A→B permeability ER ([1]; PF, all tested concentrations, MDCK-MDR1 cells): more than 2 | efflux ratio at 150 min, 100 μg/mL (P-gp (MDR1)): 2.22 | efflux ratio at 150 min, 200 μg/mL (P-gp (MDR1)): 2.13 | efflux ratio at 150 min, 400 μg/mL (P-gp (MDR1)): 2.21 | efflux ratio at 150 min, 800 μg/mL (P-gp (MDR1)): 2.01 | Papp A→B at 150 min, 400 μg/mL (P-gp [4]): 0.707 ± 0.062 ×10⁻⁶ cm/s
Structure (SMILES): C[C@@]12C[C@@]3(O)O[C@@H](O1)[C@]1(COC(=O)c4ccccc4)[C@H]3C[C@@]12O[C@@H]1O[C@H](CO)[C@@H](O)[C@H](O)[C@H]1O [PF, paeoniflorin]

Effect on A→B transport (Papp/flux) of PF [1, 7]: significantly increased | Effect on A→B transport (Papp/flux) of PF [1, 5]: significantly increased | Effect on A→B transport (Papp/flux) of PF [1, 6]: significantly increased
Structure (SMILES): CCCCC1OC(=O)C2=C1CCC=C2 (stereo not shown) [SENA, senkyunolide A]
Increase of the transport of PF ([1]; enhancer 80 µg/mL with 400 µg/mL PF, A→B, versus PF alone): approximately 109% | TEER change during permeation studies (MDCK-MDR1 monolayers; 20 μg/mL with 400 μg/mL PF): markedly decreased | TEER change during permeation studies (MDCK-MDR1 monolayers; 40 μg/mL with 400 μg/mL PF): markedly decreased | TEER change during permeation studies (MDCK-MDR1 monolayers; 80 μg/mL with 400 μg/mL PF): significantly decreased | P-gp expression versus control group (P-gp [2]; 20 μg/mL): significantly down-regulated | P-gp expression versus control group (P-gp [2]; 40 μg/mL): markedly down-regulated | P-gp expression versus control group (P-gp [2]; 80 μg/mL): markedly down-regulated

Effect on A→B transport (Papp/flux) of PF [1, 7]: significantly increased | Effect on A→B transport (Papp/flux) of PF [1, 5]: significantly increased | Effect on A→B transport (Papp/flux) of PF [1, 6]: significantly increased
Structure (SMILES): CCC/C=C1\OC(=O)C2=C1CC[C@H](O)[C@H]2O [SENI, senkyunolide I]
TEER change during permeation studies (MDCK-MDR1 monolayers; 80 μg/mL with 400 μg/mL PF): markedly decreased | P-gp expression versus control group (P-gp [2]; 20 μg/mL): markedly down-regulated | P-gp expression versus control group (P-gp [2]; 40 μg/mL): markedly down-regulated | P-gp expression versus control group (P-gp [2]; 80 μg/mL): markedly down-regulated
